EP0926242A1, “GLIOTOXIN DERIVATIVES AND ANTICANCER AGENT COMPRISING THE SAME” (priority 1996, dated 1998)

How the values were obtained:
[1] = tested on: mouse carcinoma of the colon COLON-26; test: Evaluation in vivo using mouse carcinoma of the colon COLON-26 (Example 1); conditions: day 21, CDFI mice
Procedure: CDFI mice (female: 4 weeks old) were bought, and colon-26 subcultured in vivo in the subcutaneous tissue was taken out. The colon-26 was minced in a Petridish, and transplanted into the sulcutaneous tissue of CDFI mice in an amount of 10 mg/mouse by a trucker. The transplanted day was assigned day 0, and the size of the tumor and body weight were measured on day 7 and divided into groups by n=4. The size of tumor was calculated as tumor weight by the following formula. (Tumor Weight (mg) = Tumor Volume (mm)^3 =1/2 × Major Axis (mm) × Minor Axis (mm))^2 [formula]
Administration was carried out from day 7 according to the following schedule. Dose was 0.2 mL/mouse, and injected into abdominal cavity. Acetylgliotoxin was dissolved in dimethyl sulfoxide (DMSO) in a concentration of 100 mg/mL, and adjusted to an object concentration (0.5 mg/kg, 1 mg/kg, 10 mg/kg, 20 mg/kg) by 5% Tween 80 (saline solution). In the evaluation of […], 1 mg/kg, injection was carried out every day for 5 days, in the case of 10 mg/kg, injected twice on day 7 and day 8, and in the case of 20 mg/kg, injected once on day 7.
The anticancer effect was evaluated by the inhibition rate of tumor cell multiplication (IR calculated from the weight of tumor. IR was obtained by the following formula. IR (%) = (1-Tumor Weight of Administration Group/Tumor Weight of Control Group) [formula]

[2] = tested on: Human carcinoma of the colon cell strain HCT-116; test: Tertiary culture using test human cancer, killed cells by MTT method; type: cell-based; conditions: incubated 3 days
Procedure: Tertiary cultures were carried out using a human carcinoma of the colon tissue in stage 2b. The tertiary cultures were carried out according to the reported method (Int.J.Cancer Res., 82, 607-612 (1991), Gan to Kagakuryoho, 18, 239-243 (1991), Gan to Kagakuryoho, 19, 743-748 (1992)). The extracted tissue of carninoma of the colon was cut into square pieces having a side of about 2 mm, and incubated in a RPMI- 1640 medium containing 10 % fetal calf serum under 5 % CO2 at 37 °C for 3 days. Existing anticancer agents or acetylgliotoxin were diluted and added, and further incubated for 3 days. Then, the rate of killed cells was determined by the MTT method. The tertiary cultures using the test human cancer were carried out as follows: Human carcinoma of the colon cell strain HCT-116 was transplanted into the subcutaneous tissue of a nude mouse (Balb nu/nu) to induce tumor. The cancer tissue was extracted from the tumor-induced portion, and cut into square pieces having a side of 2 mm. The evaluation of the existing anticancer agents and acetylyliotoxin was earried out according to the aforementioned method.

CC(=O)OC1C=CC=C2CC34SSC(CO)(C(=O)N3C21)N(C)C4=O (stereo not shown) [acetylgliotoxin]
I. R. (%) ([1]; 0.5 mg/kg×5 i.p.(d7-11)): 28% | I. R. (%) ([1]; 1 mg/kg×5 i.p.(d7-11)): 19% | I. R. (%) ([1]; 10 mg/kg×2 i.p.(d7, 8)): 38% | I. R. (%) ([1]; 20 mg/kg×1 i.p.(d7)): 34% | I. R. (%) ([2]; conc. 6.25 ug/mL): 43% | I. R. (%) ([2]; conc. 12.5 ug/mL): 56% | I. R. (%) ([2]; conc. 25 ug/mL): 67%
